How the values were obtained:
[1] = tested on: 4T1 cells; test: Detection of ROS production (CellROX Green, confocal); assay type: cell-based, murine; details: 100 μM, positive control
Procedure: To measure the potential oxidative stress in living cells, as a consequence of the presence of the BMNPs, CelIROX® Green Reagent (ThermoFisher) was used following the protocol recommended by the manufacturer. Briefly, cells (approximately 20×10^3 4T1/well) were seeded on glass coverslips in 24-well plates. After their exposure to different concentrations (0.1, 1, 10, 100 μg/mL), in the presence and absence of a gradient magnetic field, of BMNPs for 4 hours, the cells were washed with PBS and CelIROX® Green Reagent was added to a final concentration of 5 μM in 300 μl of DMEM medium without serum. Then, the plate was incubated in the dark at 37° C. for 30 minutes. Menadione (100 μM) was used as a positive control. After the incubation time, the coverslips were washed with PBS pH 7.2, fixed with 4% paraformaldehyde in PBS, washed again and permeabilized with 0.1% Triton-X100 for 10 minutes. Finally, the coverslips were stained and mounted on specimen slides (Biosigma). […] Therefore, the emission of green fluorescence (at 485/520 nm) is stable and is produced after the DNA binding, and therefore its signal is mainly located in the nucleus and in the mitochondria. Fluorescence was detected using a Spectral Confocal Leica TCS SP2 AOBS microscope. […]

[2] = tested on: 4T1 cells; test: Confocal analysis of DOXO internalization; assay type: cell-based, murine; details: soluble drug, positive control
Procedure: Cells (approximately 20×10^3 4T1/well) were seeded on glass coverslips in 24-well plates and, after 24 h, soluble DOXO (as a positive control) or DOXO-BMNP suspensions were added. After incubation at 37° C. for different periods of time (30 seconds, 5 and 30 minutes) in the absence (−GMF) and in the presence (+GMF) of a gradient magnetic field, coverslips were washed with fresh PBS pH 7.2 and fixed with paraformaldehyde (2% wt in PBS). To minimize unspecific interactions and permeabilize cells, coverslips were washed with Tris-Buffered Saline (TBS) containing 5% Bovine Serum Albumin (BSA), 0.1% Triton X-100 and 5% got serum and then stained. In particular cytoskeletal actin microfilaments were stained with FITC-phalloidin (Sigma-Aldrich, excitation at 488 nm; emission at 500-535 nm) and nuclei were stained with TO-PRO-3 (1/70, Life Technologies; excitation at 633 nm; emission at 650-750 nm). DOXO was detected after excitation at 476 nm and emission at 575-630 nm. Fluorescence was detected using a Leica TCS SP2 AOBS Spectral Confocal Scanner microscope. Images were taken at 400× magnification. ImageJ software was used for analysis.

[3] = tested on: 4T1 tumors; test: In vivo magnetic targeting and antitumor activity; design: species or system BALB/c mice; details: day 15, 2 mg/kg DOXO i.v. x5
Text: Female BALB/c mice were inoculated with 10^5 4T1 cells into a mammary gland fat pad. […] The 6 groups were intravenously injected and treated as follows: i) PBS (control), ii-iii) DOXO-BMNPs +/−gradient magnetic field, iv-v) BMNPs +/−gradient magnetic field, and vi) soluble DOXO. […] The magnetic field was applied by attaching a 10 mm in diameter×3 mm thick N42 neodymium magnet (1.8 kg pull, Magnet Expert Ltd) with 3MTM Vetbond™ tissue adhesive on the tumor site and keeping it attached for 1 hour after the injection. This neodymium magnet, with a magnetic anisotropy normal to the plane and a saturation magnetization of 800 emu/cc, could generate a direct current (d.c.) magnetic field of the order of 100 Oe a few millimeters from the surface. Therefore, the effect of the magnet is equivalent to the application of a local 100-Oe external d.c. magnetic field immediately after the administration of the nanoparticles. Throughout the study, body weight and tumor volumes (measured with caliper) were recorded every 3-4 days. Three days after the last injections (day 18), mice were euthanized, their weights, as well as, tumor weights were recorded and, then, tumors, hearts, livers, spleens, brains, lungs, and kidneys were collected for histology. Histological sections of the tumors were prepared for hematoxylin-eosin and Prussian blue staining to analyze particle biodistribution.

`CC1=CC(=O)c2ccccc2C1=O` [Menadione] was tested, and the ROS release [1] was “clearly visible”.

`COc1cccc2c1C(=O)c1c(O)c3c(c(O)c1C2=O)C[C@@](O)(C(=O)CO)C[C@@H]3O[C@H]1C[C@H](N)[C@H](O)[C@H](C)O1` [soluble DOXO, doxorubicin] was tested, and the “internalization of DOXO in cell nuclei (confocal)” value [2] was “detected only after 5 min” and the tumor volume [3] was “significantly reduced”.

Reference: patent publication US20220143212A1, “MAMC-MEDIATED BIOMIMETIC NANOPARTICLES” (UNIVERSIDAD DE GRANADA, priority 2018, published 2022)
